In US20260226065A1, “SUBSTITUTED BENZENE COMPOUND” (DAIICHI SANKYO COMPANY, LIMITED, priority 2023, published 2026) one finds IC50 data, which are given here for 27 compounds.

What is called IC50 is the concentration that inhibits the measured activity by half. Low readings indicate higher potency, high ones lower potency.

For the assay, the target named is T1, NLRP3 inflammasome (Homo sapiens, UniProt Q96P20).
T1 construct: endogenous in cells; host or cells: THP-1 (human monocyte-derived), PMA-differentiated, Nigericin-stimulated
T1 sequence (Q96P20 whole entry): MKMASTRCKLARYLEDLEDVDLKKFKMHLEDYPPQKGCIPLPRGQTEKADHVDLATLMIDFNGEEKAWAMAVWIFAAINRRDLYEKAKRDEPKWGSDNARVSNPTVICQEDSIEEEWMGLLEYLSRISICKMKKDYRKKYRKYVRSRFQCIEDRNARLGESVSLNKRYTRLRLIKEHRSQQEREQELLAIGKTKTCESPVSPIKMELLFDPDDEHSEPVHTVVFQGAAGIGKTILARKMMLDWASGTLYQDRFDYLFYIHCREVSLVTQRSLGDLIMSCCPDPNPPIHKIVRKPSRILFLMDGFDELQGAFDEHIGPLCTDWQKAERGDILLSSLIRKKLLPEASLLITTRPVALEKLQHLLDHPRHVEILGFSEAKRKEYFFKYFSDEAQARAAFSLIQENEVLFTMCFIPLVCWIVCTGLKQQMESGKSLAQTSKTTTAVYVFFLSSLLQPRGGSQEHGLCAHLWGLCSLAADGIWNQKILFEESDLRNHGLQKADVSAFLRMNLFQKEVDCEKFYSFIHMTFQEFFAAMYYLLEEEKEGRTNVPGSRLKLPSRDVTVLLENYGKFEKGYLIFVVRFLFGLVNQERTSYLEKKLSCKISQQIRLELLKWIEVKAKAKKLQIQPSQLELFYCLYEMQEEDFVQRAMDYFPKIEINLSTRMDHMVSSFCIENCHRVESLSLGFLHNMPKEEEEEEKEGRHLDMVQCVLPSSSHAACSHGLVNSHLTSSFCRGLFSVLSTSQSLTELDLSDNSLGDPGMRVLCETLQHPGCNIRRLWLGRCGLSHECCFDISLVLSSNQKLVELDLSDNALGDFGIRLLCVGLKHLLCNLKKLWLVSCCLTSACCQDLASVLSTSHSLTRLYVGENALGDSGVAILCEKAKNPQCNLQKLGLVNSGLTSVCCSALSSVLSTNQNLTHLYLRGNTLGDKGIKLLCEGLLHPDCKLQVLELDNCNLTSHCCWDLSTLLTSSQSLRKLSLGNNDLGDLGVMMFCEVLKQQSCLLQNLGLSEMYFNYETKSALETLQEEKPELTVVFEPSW
The assay can be described thus: In vitro IL-1β production test (PMA-differentiated THP-1 cells, Nigericin stimulation, AlphaLISA). Format: cell-based. The conditions noted are these: inhibition of IL-1β production; THP-1 cells differentiated with 200 nM PMA; 0.015 mM Nigericin; 2 hours. The procedure:
Human monocyte-derived THP-1 cells were cultured for one day in 10% bovine serum-containing RPMI-1640 medium (Thermo #A10491-01) supplemented with 200 nM phorbol 12-myristate 13-acetate (PMA, Sigma #P8139) to induce differentiation.
NLRP3 inflammasome was induced by replacing the culture medium with bovine serum-free RPMI-1640 medium supplemented with 0.015 mM Nigericin (Sigma #SML1779) and the test compound of known concentrations.
After 2 hours, the culture medium supernatant was collected and the IL-1β protein concentration was measured using the AlphaLISA (registered trademark) assay (PerkinElmer #AL220C).
The IL-1β concentration without the addition of the test compound and with Nigericin stimulation was set as 0% inhibitory activity, and the IL-1β concentration without Nigericin stimulation was set as 100% inhibitory activity, and the inhibition rate (% inhibition) of the test compound at each added concentration was calculated.
The % inhibition value was subjected to sigmoid fitting using a logistic regression model to calculate the 50% inhibitory concentration (IC50 value).
A general note: Alpha assays give light when donor and acceptor beads are brought close together.
Consider `Cc1cc(C(F)(F)F)cc(O)c1-c1cc2c(nn1)N([C@@H]1CCCN(C)C1)C(C)C2` (mixture of isomers) [Example 30, 3-methyl-2-{6-methyl-7-[(3R)-1-methylpiperidin-3-yl]-6,7-dihydro-5H-pyrrolo[2,3-c]pyridazin-3-yl}-5-(trifluoromethyl)phenol], for which the half-inhibitory concentration (IC50) stood at 14.4 nM.
As to `Cc1cc(C(F)(F)F)cc(O)c1-c1cc2c(nn1)N([C@@H]1CCCN(C3CCOC3)C1)CC2` (mixture of isomers) [Example 57, 3-methyl-2-{7-[(3R)-1-(tetrahydrofuran-3-yl)piperidin-3-yl]-6,7-dihydro-5H-pyrrolo[2,3-c]pyridazin-3-yl}-5-(trifluoromethyl)phenol], the IC50 worked out at 57.2 nM.
Regarding `CCN1[C@H]2CC[C@H](N3CCc4cc(-c5c(C)cc(C(F)(F)F)cc5O)nnc43)[C@@H]1CC2` (racemic) [Example 17, 2-{7-[(1S*, 2S*, 5R*)-8-ethyl-8-azabicyclo[3.2.1]octan-2-yl]-6,7-dihydro-5H-pyrrolo[2,3-c]pyridazin-3-yl}-3-methyl-5-(trifluoromethyl)phenol], 9.47 nM corresponded to half-maximal inhibition (IC50).
`Cc1cc(C(F)(F)F)cc(O)c1-c1cc2cnn(C3CCCN(C)C3)c2nn1` (racemic) [Example 31, 3-methyl-2-[1-(1-methylpiperidin-3-yl)-1H-pyrazolo[3,4-c]pyridazin-5-yl]-5-(trifluoromethyl)phenol] registered an IC50 of 413 nM.
`Cc1cc(C(F)(F)F)cc(O)c1-c1cc2ccn([C@H]3C[C@@](C)(O)[C@H]3C)c2nn1` (racemic) [Example 42, 2-{7-[(1S*,2S*,3R*)-3-hydroxy-2,3-dimethylcyclobutyl]-7H-pyrrolo[2,3-c]pyridazin-3-yl}-3-methyl-5-(trifluoromethyl)phenol] displayed an IC50 of 74 nM.
For the compound `Cc1cc(C(F)(F)F)cc(O)c1-c1cc2c(nn1)N([C@H]1C[C@@](C)(O)C1)CC2C` (mixture of isomers) [Example 85, 2-{7-[(1s,3s)-3-hydroxy-3-methylcyclobutyl]-5-methyl-6,7-dihydro-5H-pyrrolo[2,3-c]pyridazin-3-yl}-3-methyl-5-(trifluoromethyl)phenol], the midpoint of inhibition, the IC50, lay at 65.3 nM.
`Cc1cc(C(F)(F)F)cc(O)c1-c1cc2c(nn1)N([C@H]1C[C@@](C)(O)C1)C(C)C2` (mixture of isomers) [Example 86, 2-{7-[(1s,3s)-3-hydroxy-3-methylcyclobutyl]-6-methyl-6,7-dihydro-5H-pyrrolo[2,3-c]pyridazin-3-yl}-3-methyl-5-(trifluoromethyl)phenol] displayed an IC50 of 141 nM.
`Cc1cc(C(F)(F)F)cc(O)c1-c1ccc(CC2CCCN(C)C2)nn1` (racemic) [Example 93, 3-methyl-2-{6-[(1-methylpiperidin-3-yl)methyl]pyridazin-3-yl}-5-(trifluoromethyl)phenol] displayed an IC50 of 30.1 nM.
Take `Cc1cc(C(F)(F)F)cc(O)c1-c1cc2c(nn1)c(C1CCCN(C)C1)cn2C` (racemic) [Example 94, 3-methyl-2-[5-methyl-7-(1-methylpiperidin-3-yl)-5H-pyrrolo[3,2-c]pyridazin-3-yl]-5-(trifluoromethyl)phenol]: the IC50 was determined as 79.6 nM.
Compound `Cc1cc(C(F)(F)F)cc(O)c1-c1cc2scc(C3CCCN(C)C3)c2nn1` (racemic) [Example 95, 3-methyl-2-[7-(1-methylpiperidin-3-yl)thieno[3,2-c]pyridazin-3-yl]-5-(trifluoromethyl)phenol] gave a half-inhibitory concentration (IC50) of 19.7 nM.
Regarding `Cc1cc(C(F)(F)F)cc(O)c1-c1cc2c(nn1)N([C@@H]1CC[C@@H]3CC[C@H]1N3C)CC2` (single isomer, unassigned) [Example 19, 3-methyl-2-{7-[(1R,2R,5S or 1,2S,5R)-8-methyl-8-azabicyclo[3.2.1]octan-2-yl]-6,7-dihydro-5H-pyrrolo[2,3-c]pyridazin-3-yl}-5-(trifluoromethyl)phenol], the IC50 is 9.99 nM.
As for `Cc1cc(C(F)(F)F)cc(O)c1-c1cc2c(nn1)N([C@@H]1CCCN(C)C1)C[C@H]2C` (single isomer, unassigned) [Example 33, 3-methyl-2-{(5S or 5R)-5-methyl-7-[(3R)-1-methylpiperidin-3-yl]-6,7-dihydro-5H-pyrrolo[2,3-c]pyridazin-3-yl}-5-(trifluoromethyl)phenol], half-maximal inhibition (IC50) was put at 10 nM.
To `Cc1cc(C(F)(F)F)cc(O)c1-c1cc2c(nn1)N([C@@H]1CCCN(C)C1)C[C@@H]2C` (single isomer, unassigned) [Example 34, 3-methyl-2-{(5R or 5S)-5-methyl-7-[(3R)-1-methylpiperidin-3-yl]-6,7-dihydro-5H-pyrrolo[2,3-c]pyridazin-3-yl}-5-(trifluoromethyl)phenol] belongs 9.07 nM.
As to `Cc1cc(C(F)(F)F)cc(O)c1-c1cc2c(nn1)N([C@@H]1CCCN(C)C1)[C@H](C)C2` (single isomer, unassigned) [Example 55, 3-methyl-2-{(6R or 6S)-6-methyl-7-[(3R)-1-methylpiperidin-3-yl]-6,7-dihydro-5H-pyrrolo[2,3-c]pyridazin-3-yl}-5-(trifluoromethyl)phenol], half-maximal inhibition (IC50) was put at 23.8 nM.
As for `CCN1[C@H]2CC[C@@H]1[C@H](n1cc(C)c3cc(-c4c(C)cc(C(F)(F)F)cc4O)nnc31)CC2` (single isomer, unassigned) [Example 76, 2-{7-[(1R,2R,5S or 1S,2S,5R)-8-ethyl-8-azabicyclo[3.2.1]octan-2-yl]-5-methyl-7H-pyrrolo[2,3-c]pyridazin-3-yl}-3-methyl-5-(trifluoromethyl)phenol], the IC50 worked out at 10.1 nM.
As for `Cc1cc(C(F)(F)F)cc(O)c1-c1cc2cccc([C@@H]3CCCN(C)C3)c2nn1` (single isomer, unassigned) [Example 96, 3-methyl-2-{8-[(3R or 3S)-1-methylpiperidin-3-yl]cinnolin-3-yl}-5-(trifluoromethyl)phenol], the IC50 came out at 11.5 nM.
The result for `CCN1CCC[C@@H](c2cccc3cc(-c4c(C)cc(C(F)(F)F)cc4O)nnc23)C1` (single isomer, unassigned) [Example 97, 2-{8-[(3R or 3S)-1-ethylpiperidin-3-yl]cinnolin-3-yl}-3-methyl-5-(trifluoromethyl)phenol] reads 8.33 nM; that for `Cc1cc(C(F)(F)F)cc(O)c1-c1cc2c(nn1)N(c1ncc(F)cn1)[C@@H]1CCO[C@H]21` (single isomer, unassigned) [Example 98, 2-[(4bR,7aR or 4bS,7aS)-8-(5-fluoropyrimidin-2-yl)-6,7,7a,8-tetrahydro-4bH-furo[2′,3′:4,5]pyrrolo[2,3-c]pyridazin-3-yl]-3-methyl-5-(trifluoromethyl)phenol], 13.8 nM.
`Cc1cc(C(F)(F)F)cc(O)c1-c1cc2c(nn1)N([C@@H]1CCCN(C)C1)CC2` [Example 1, 3-methyl-2-{7-[(3R)-1-methylpiperidin-3-yl]-6,7-dihydro-5H-pyrrolo[2,3-c]pyridazin-3-yl}-5-(trifluoromethyl)phenol]: half-maximal inhibition (IC50) was put at 5.27 nM.
For the compound `Cc1cc(C(F)(F)F)cc(O)c1-c1cc2ccn([C@@H]3CCCN(C)C3)c2nn1` [Example 2, 3-methyl-2-{7-[(3R)-1-methylpiperidin-3-yl]-7H-pyrrolo[2,3-c]pyridazin-3-yl}-5-(trifluoromethyl)phenol], the IC50 was 5.26 nM.
The result for `Cc1cc(C(F)(F)F)cc(O)c1-c1cc2c(Cl)cn([C@H]3C[C@@](C)(O)C3)c2nn1` [Example 6, 2-{5-chloro-7-[(1s,3s)-3-hydroxy-3-methylcyclobutyl]-7H-pyrrolo[2,3-c]pyridazin-3-yl}-3-methyl-5-(trifluoromethyl)phenol] reads 26 nM.
The compound `Cc1cc(C(F)(F)F)cc(O)c1-c1cc2ccn([C@H]3C[C@@](C)(CO)C3)c2nn1` [Example 7, 2-{7-[(1s,3s)-3-(hydroxymethyl)-3-methylcyclobutyl]-7H-pyrrolo[2,3-c]pyridazin-3-yl}-3-methyl-5-(trifluoromethyl)phenol] displayed an IC50 of 67.6 nM.
In turn, `Cc1cc(C(F)(F)F)cc(O)c1-c1cc2c(C)cn(C34CCCC(O)(C3)C4)c2nn1` [Example 8, 5-{3-[2-hydroxy-6-methyl-4-(trifluoromethyl)phenyl]-5-methyl-7H-pyrrolo[2,3-c]pyridazin-7-yl}bicyclo[3.1.1]heptan-1-ol] gave an IC50 of 15.4 nM.
For the compound `Cc1cc(Cl)cc(O)c1-c1cc2c(C)cn([C@H]3C[C@@](C)(O)C3)c2nn1` [Example 9, 5-chloro-2-{7-[(1s,3s)-3-hydroxy-3-methylcyclobutyl]-5-methyl-7H-pyrrolo[2,3-c]pyridazin-3-yl}-3-methylphenol], the IC50 came to 13.2 nM.
`CCN1CCC[C@@H](N2CCc3cc(-c4c(C)cc(C(F)(F)F)cc4O)nnc32)C1` [Example 11, 2-{7-[(3R)-1-ethylpiperidin-3-yl]-6,7-dihydro-5H-pyrrolo[2,3-c]pyridazin-3-yl}-3-methyl-5-(trifluoromethyl)phenol] gave an IC50 of 7.32 nM.
To `Cc1cc(C(F)(F)F)cc(O)c1-c1cc2c3c(n([C@H]4C[C@@](C)(O)C4)c2nn1)CCC3` [Example 12, 2-{8-[(1s,3s)-3-hydroxy-3-methylcyclobutyl]-5,6,7,8-tetrahydrocyclopenta[4,5]pyrrolo[2,3-c]pyridazin-3-yl}-3-methyl-5-(trifluoromethyl)phenol] belongs 25.9 nM.
In turn, `Cc1cc(OC(F)F)cc(O)c1-c1cc2c(C)cn([C@H]3C[C@@](C)(O)C3)c2nn1` [Example 13, 5-(difluoromethoxy)-2-{7-[(1s,3s)-3-hydroxy-3-methylcyclobutyl]-5-methyl-7H-pyrrolo[2,3-c]pyridazin-3-yl}-3-methylphenol] had a 50% inhibitory concentration (IC50) of 37.6 nM.
